# Data as given in US10597388B2, “Pyridazinone herbicides” (FMC CORPORATION, priority 2014, dated 2020).
# Columns and labels:
# Type in all cases: in vivo
# [1] = system: buckwheat, wild (wild buckwheat, Polygonum convolvulus); assay: Test D controlled growth environment herbicide test, pre- and postemergence; conditions: for Buckwheat, Wild plant response rating / Plant response rating (scale of 0 to 100), Buckwheat, Wild: 31 g ai/ha
# Text: Seeds of plant species selected from bluegrass (annual bluegrass, Poa annua), blackgrass (Alopecurus myosuroides), Canada thistle (Cirsium arvense), canarygrass (Phalaris minor), chickweed (common chickweed, Stellaria media), geranium, cutleaf (cutleaf geranium, Geranium dissectum), galium (catchweed bedstraw, Galium aparine), bromegrass, downy (downy bromegrass, Bromus tectorum), field poppy (Papaver rhoeas), field violet (Viola arvensis), foxtail, green (green foxtail, Setaria viridis), deadnettle (henbit deadnettle, Lamium amplexicaule), ryegrass, Italian (Italian ryegrass, Lolium multiflorum), kochia (Kochia scoparia), lambsquarters (Chenopodium album), oilseed rape (Brassica napus), pigweed (Amaranthus retroflexus), chamomile (scentless chamomile, Matricaria inodora), Russian thistle (Salsola kali), speedwell (bird's-eye speedwell, Veronica persica), barley, spring (spring barley, Hordeum vulgare), wheat, spring (spring wheat, Triticum aestivum), buckwheat, wild (wild buckwheat, Polygonum convolvulus), mustard, wild (wild mustard, Sinapis arvensis), oat, wild (wild oat, Avena fatua), radish, wild (wild radish, Raphanus raphanistrum), windgrass (Apera spica-venti), barley, winter (winter barley, Hordeum vulgare), and wheat, winter (winter wheat, Triticum aestivum) were planted into a silt loam soil and treated preemergence with test chemicals formulated in a non-phytotoxic solvent mixture which included a surfactant.
# At the same time, these species were planted in pots containing Redi-Earth® planting medium (Scotts Company, 14111 Scottslawn Road, Marysville, Ohio 43041) comprising spaghnum peat moss, vermiculite, wetting agent and starter nutrients and treated with postemergence applications of the test chemicals formulated in the same manner. Plants ranged in height from 2 to 18 cm (1- to 4-leaf stage). Treated plants and controls were maintained in a controlled growth environment for 14 to 21 d after which time all species were compared to controls and visually evaluated. Plant response ratings, summarized in Table D, are based on a scale of 0 to 100 where 0 is no effect and 100 is complete control. A dash (-) response means no test result.
# [2] = system: horseweed (Conyza canadensis); assay: Test E greenhouse herbicide test, pre- and postemergence
# Outline: (§1)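 Visual ratings, 0 for no effect up to 100 for complete control, were taken relative to controls 14 to 21 d after greenhouse treatment. Applications used a surfactant-containing non-phytotoxic solvent formulation, sprayed either preemergence on silt loam-sown seed or postemergence on 1- to 4-leaf plants 2-18 cm tall in peat-based potting medium.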
# [3] = system: momingglory (Ipomoea coccinea); assay: as above; conditions: Preemergence
# Outline: as §1
# corn (Zea mays) = assay: as above
# Outline: as §1
# [4] = system: surinam grass (Brachiaria decumbens); assay: as above; conditions: Preemergence
# Outline: as §1
# [5] = system: arrowleaf sida (Sida rhombifolia); assay: as above
# Outline: as §1
# [6] = system: pigweed, palmer (palmer pigweed, Amaranthus palmeri); assay: as above
# Outline: as §1
# [7] = system: field bindweed (Convolvulus arvensis); assay: as above
# Outline: as §1
# [8] = system: goosegrass (Eleusine indica); assay: as above; conditions: Preemergence
# Outline: as §1
# soybean (Glycine max) = assay: as above
# Outline: as §1
# [9] = Postemergence, scale 0 to 100 (0 no effect, 100 complete control)
# [10] = Postemergence, 125 g ai/ha, visual rating on scale 0 (no effect) to 100 (complete control), 14 to 21 d
# [11] = Postemergence, 250 g ai/ha, scale 0 to 100 (0 no effect, 100 complete control)
# [12] = Preemergence, 125 g ai/ha, scale 0 to 100 (0 no effect, 100 complete control)
# [13] = Preemergence, 250 g ai/ha, scale 0 to 100 (0 no effect, 100 complete control)
# [14] = postemergence, 62 g ai/ha, scale 0 to 100, 0 no effect, 100 complete control
# [15] = 62 g ai/ha, Preemergence, scale 0 to 100 (0 no effect, 100 complete control)
# [16] = Preemergence, 31 g ai/ha, scale 0 to 100, 0 no effect, 100 complete control
# [17] = Preemergence, 125 g ai/ha, visual, scale 0 no effect to 100 complete control
# [18] = Preemergence, 250 g ai/ha, visual, scale 0 no effect to 100 complete control
# [19] = 62 g ai/ha, scale 0 to 100 (0 no effect, 100 complete control)
# [20] = 125 g ai/ha, scale 0 to 100 (0 no effect, 100 complete control)
# [21] = 31 g ai/ha, scale 0 to 100, 0 no effect, 100 complete control
# [22] = 250 g ai/ha, visual, scale 0 no effect to 100 complete control
# [23] = 125 g ai/ha, Preemergence, scale 0 to 100 (0 no effect, 100 complete control)
# [24] = 62 g ai/ha, Postemergence, scale 0 to 100 (0 no effect, 100 complete control)
# [25] = 125 g ai/ha, Postemergence, scale 0 to 100 (0 no effect, 100 complete control)
# [26] = Postemergence, 16 g ai/ha, visual, scale 0 no effect to 100 complete control
# [27] = Postemergence, 31 g ai/ha, visual, scale 0 no effect to 100 complete control
smiles,measurement,setting,value
Cc1ccc2ccccc2c1-c1c(O)c(C)nn(C)c1=O [Compound 59],"Buckwheat, Wild plant response rating",[1]; [9],65
same,"Plant response rating, Buckwheat, Wild",[1]; [10],100
same,"Plant response rating, Buckwheat, Wild",[1]; [11],100
same,"Plant response rating (scale of 0 to 100), Buckwheat, Wild",[1]; Preemergence,20
same,"Plant response rating, Buckwheat, Wild","[1]; Preemergence, 62 g ai/ha, scale 0 to 100 (0 no effect, 100 complete control)",65
same,"Plant response rating, Buckwheat, Wild",[1]; [12],100
same,"Plant response rating, Buckwheat, Wild",[1]; [13],95
same,"Plant response rating, Buckwheat, Wild",[1]; [14],100
same,"Plant response rating, Horseweed",[2]; [15],100
same,"Plant response rating, Horseweed",[2]; [16],100
same,"Plant response rating, Horseweed",[2]; [17],100
same,"Plant response rating, Horseweed",[2]; [18],100
same,"Plant response rating, Morningglory",[3]; [19],95
same,"Plant response rating, Morningglory",[3]; [20],98
same,"Plant response rating, Morningglory",[3]; [21],75
same,"Plant response rating, Morningglory",[3]; [22],100
same,"Plant response rating, Corn",corn (Zea mays); [15],0
same,"Plant response rating, Corn",corn (Zea mays); [16],0
same,"Plant response rating, Corn",corn (Zea mays); [17],0
same,"Plant response rating, Corn",corn (Zea mays); [18],20
same,"Plant response rating, Surinam Grass",[4]; [19],90
same,"Plant response rating, Surinam Grass",[4]; [20],100
same,"Plant response rating, Surinam Grass",[4]; [21],85
same,"Plant response rating, Surinam Grass",[4]; [22],100
same,"Plant response rating, Arrowleaf Sida",[5]; [15],95
same,"Plant response rating, Arrowleaf Sida",[5]; [16],80
same,"Plant response rating, Arrowleaf Sida",[5]; [17],98
same,"Plant response rating, Arrowleaf Sida",[5]; [18],98
same,"Plant response rating, Pigweed, Palmer",[6]; [15],98
same,"Plant response rating, Pigweed, Palmer",[6]; [23],100
same,"Plant response rating, Pigweed, Palmer",[6]; [16],95
same,"Plant response rating, Pigweed, Palmer",[6]; [18],100
same,"Plant response rating, Field Bindweed",[7]; [15],75
same,"Plant response rating, Field Bindweed",[7]; [16],65
same,"Plant response rating, Field Bindweed",[7]; [17],95
same,"Plant response rating, Field Bindweed",[7]; [18],95
same,"Plant response rating, Goosegrass",[8]; [19],95
same,"Plant response rating, Goosegrass",[8]; [21],90
same,"Plant response rating, Goosegrass","[8]; 125 g ai/ha, visual, scale 0 no effect to 100 complete control",98
same,"Plant response rating, Goosegrass",[8]; [22],98
same,"Plant response rating, Soybean",soybean (Glycine max); [15],30
same,"Plant response rating, Soybean",soybean (Glycine max); [23],30
same,"Plant response rating, Soybean",soybean (Glycine max); [16],35
same,"Plant response rating, Soybean",soybean (Glycine max); [18],70
CC(=O)Oc1c(C)nn(C)c(=O)c1-c1ccc(F)c2ccccc12 [Compound 90],"Buckwheat, Wild plant response rating",[1]; [9],80
same,"Plant response rating, Buckwheat, Wild",[1]; [10],100
same,"Plant response rating, Buckwheat, Wild",[1]; [11],100
same,"Plant response rating (scale of 0 to 100), Buckwheat, Wild",[1]; Preemergence,15
same,"Plant response rating, Buckwheat, Wild",[1]; [12],40
same,"Plant response rating, Buckwheat, Wild",[1]; [13],80
same,"Plant response rating, Buckwheat, Wild",[1]; [14],90
same,"Plant response rating, Horseweed",[2]; [24],75
same,"Plant response rating, Horseweed",[2]; [25],70
same,"Plant response rating, Horseweed",[2]; [26],50
same,"Plant response rating, Horseweed",[2]; [27],70
same,"Plant response rating, Corn",corn (Zea mays); [24],5
same,"Plant response rating, Corn",corn (Zea mays); [25],0
same,"Plant response rating, Corn",corn (Zea mays); [26],5
same,"Plant response rating, Corn",corn (Zea mays); [27],0
same,"Plant response rating, Arrowleaf Sida",[5]; [24],90
same,"Plant response rating, Arrowleaf Sida",[5]; [25],90
same,"Plant response rating, Arrowleaf Sida",[5]; [26],70
same,"Plant response rating, Arrowleaf Sida",[5]; [27],80
same,"Plant response rating, Pigweed, Palmer",[6]; [24],50
same,"Plant response rating, Pigweed, Palmer",[6]; [25],60
same,"Plant response rating, Pigweed, Palmer",[6]; [26],40
same,"Plant response rating, Pigweed, Palmer",[6]; [27],65
same,"Plant response rating, Field Bindweed",[7]; [24],90
same,"Plant response rating, Field Bindweed",[7]; [25],100
same,"Plant response rating, Field Bindweed",[7]; [26],60
same,"Plant response rating, Field Bindweed",[7]; [27],80
same,"Plant response rating, Soybean",soybean (Glycine max); [25],60
same,"Plant response rating, Soybean",soybean (Glycine max); [26],20
same,"Plant response rating, Soybean",soybean (Glycine max); [27],30
